Laboratory results from patent publication US20260144805A1, “CANNABIDIOL COMPOSITIONS FOR USE IN THE TREATMENT OF NEURODEGENERATIVE AND NEUROLOGICAL DISORDERS” (JAZZ PHARMACEUTICALS RESEARCH UK LIMITED, priority 2022, published 2026).

Assays:
Type in all cases: in vivo
rat VPA model [1] = test: Marble burying test P58 in rat VPA model (Example 5; DS = DS-E); details: adult P58, risperidone 0.125 mg/kg
Procedure: (§1) Time-mated female Wistar rats were administered a single dose of valproic acid (VPA, 600 mg/kg, i.p.) on gestational day 12.5. Male offspring were delivered and confirmation of the VPA induced developmental deficit was rapidly achieved by examination of characteristic “tail kinks” in the juvenile animals. The timeline of experiments is outlined in FIG. 8 and animals were randomly allocated to treatment groups (Table O).
(§2) Control animals were administered sterile saline (0.9% w/v, i.p.) in utero and the vehicle control (ethanol: Kolliphor HS15: saline (1:1:18, v/v/v), i.p.
The marble burying test has been employed as an animal model of anxiety and impulsive behavior. […] Over a 10-minute test period animals were allowed to freely explore the apparatus and subsequently removed whereupon marbles covered by at least one half with bedding were considered buried and this number was recorded and was the main outcome measure for this behavior. Video recording of the test period was evaluated for locomotor activity and scored for frequency and duration of digging behavior.
(§3) All data was assessed for outliers (ROUT; Prism V9.02) and then normality using D'Agostino and Pearson normality test for n=8, or Shapiro-Wilks test for n<8 or unequal groups. Data that were non-normally distributed were analysed using Kruskal-Wallis followed by planned comparisons with Dunn's correction. Normally distributed data were analysed using one-way ANOVA or two-way ANOVA followed by planned comparisons with Sidak's correction. […] Statistical significance was defined as p<0.05 using Prism 9.0.2 software for analysis.

rat VPA model [2] = test: Direct social interaction and social play P30 in rat VPA model (Example 5; DS = DS-E)
Procedure: as §1, §2
At postnatal day 30 and following 8 days treatment with the test compounds, animals were evaluated for juvenile play behavior. […] Animals were first allowed to individually explore the arena for 10-minute acclimatization trial (P29) and 24 hours later evaluated for social play (P30). On day of evaluation animals were scored for play activity measured by pinning (latency to, total duration and frequency), mounting (latency to, total duration and frequency) and latency, frequency and duration of social play behavior (following or approaching test partner, sniffing or social grooming). […]
All data was assessed for outliers (ROUT; Prism V9.02) and then normality using D'Agostino and Pearson normality test for n=8, or Shapiro-Wilks test for n<8 or unequal groups. […]

[3] = test system: valproic acid-induced autism spectrum disorder (ASD) mouse model; test: Valproic acid-induced ASD model, autism-like behaviors, DS vs sCBD and risperidone (Example 6, Table P); set-up: key to Adult open field hyperactivity (spontaneous LMA on day 1) / Adult open field hyperactivity (LMA on day 2) / Adult marble burying / Adult grooming / Juvenile vocalisation: +: improvement; Ø: no change; −: not tested; details: 0.125 mg/kg I.P.
Source text: (§4) The main objective of the following study was to assess the effect of the drug substance (DS) of Example 1 in ameliorating autism-like behavior in valproic acid-induced autism spectrum disorder (ASD) mouse model (FIGS. 19A-B).

[4] = test system: valproic acid-induced autism spectrum disorder (ASD) mouse model; test: Valproic acid-induced ASD model, bottle-brush test (irritability) (Example 6, Table P); set-up: key: +: improvement; Ø: no change; −: not tested; details: 0.125 mg/kg I.P.
Source text: as §4

rat VPA model [5] = test: Open field test (locomotor activity, circling, grooming, centre zone) P56-57 in rat VPA model (Example 5; DS = DS-E); details: adult, risperidone 0.125 mg/kg
Procedure: as §1, §2
Animals were scored for locomotor activity and exploratory behavior in a two 10-minute trials within an open field arena over two days. Each day the animals were placed into a […] black Perspex box with 30 cm side walls, under low light and monitored via remote video capture for spontaneous activity. Linked to Ethovision XT image analysis software this was analysed for total distance moved and number and duration of center zone crossings. Manual scoring of the videos was then conducted (blinded to treatment group) to determine frequency of circling behavior (number of 360 degree turns) and time spent grooming.
as §3

rat VPA model [6] = test: Irritability-like behaviour: bottle brush test in rat VPA model, juvenile P30 and adult (Example 5; DS = DS-E); details: risperidone 0.125 mg/kg
Procedure: as §1, §2
To test irritability-like behavior we employed the bottle-brush test modified for rats (Riittinen et al. 1986 Dev Psychobiol 19:105-111). Irritability-like behavior was examined by measuring aggressive and defensive responses during the bottle-brush test carried out in juvenile animals immediately after play behavior evaluation at P30 and again in adult animals on P59. Irritability-like behavior testing was performed under dark conditions with a red light and infrared camera recording. Testing consisted of 10 trials per rat in plastic cages (377×325×170 mm) with fresh bedding. During each trial, the rat was placed at the back of the cage. A bottle-brush was rotated toward the animal's whiskers (from the front of the cage). The brush was rotated around the whiskers of the rat for approximately 1 second. The brush was then rotated back to the front of the cage where it hangs vertically for approximately 2 seconds, during which behavioural responses were recorded. An intertrial interval of 10 second was used.
Employing video analysis of the test, the following were scored as aggressive responses: smelling the brush, biting the brush (during the initial phase of rotating the brush forward and back to the starting position), boxing the target, following the brush, exploring the brush (using paws or mouth to manipulate the brush without biting or boxing), mounting the brush, and delayed biting (during the 2 s that the brush hung at the starting position). Additionally, the following were scored as defensive responses: escaping from the brush, digging, burying, jumping, climbing, vocalization, freezing, and grooming. Frequency of each response and the sum of aggressive and defensive behaviours were recorded.
as §3

[7] = juvenile P30, 8 days, vs VPA/VEH

Structure (SMILES): Cc1nc2n(c(=O)c1CCN1CCC(c3noc4cc(F)ccc34)CC1)CCCC2 [Risperidone]
- VPA-induced digging behaviour (rat VPA model [1]): significantly reduced
- number of marbles buried (rat VPA model [1]): no significant effect
- number of marbles buried (rat VPA model [1]; listed as risperidone): significantly reduced
- Social duration and frequency behaviours (rat VPA model [2]; juvenile P30, risperidone 0.125 mg/kg): no effect
- any measure of play or social interaction (rat VPA model [2]; juvenile animals, Risperidone 0.125 mg/kg): without effect
- Adult grooming ([3]; control beside DS): +
- Adult marble burying ([3]; control beside DS): +
- Adult open field hyperactivity (LMA on day 2) ([3]; control beside DS): +
- Adult open field hyperactivity (spontaneous LMA on day 1) ([3]; control beside DS): +
- Adult grooming ([3]; control beside sCBD): +
- Adult marble burying ([3]; control beside sCBD): +
- Adult open field hyperactivity (LMA on day 2) ([3]; control beside sCBD): +
- Adult open field hyperactivity (spontaneous LMA on day 1) ([3]; control beside sCBD): +
- Adult marble burying ([3]; control beside sCBD-2): +
- Adult open field hyperactivity (LMA on day 2) ([3]; control beside sCBD-2): Ø
- Adult open field hyperactivity (spontaneous LMA on day 1) ([3]; control beside sCBD-2): +
- Adult bottle brush irritability test ([4]; control beside DS): +
- Juvenile bottle brush irritability test ([4]; control beside DS): Ø
- Adult bottle brush irritability test ([4]; control beside sCBD): +
- Juvenile bottle brush irritability test ([4]; control beside sCBD): +
- Adult bottle brush irritability test ([4]; control beside sCBD-2): +
- Juvenile bottle brush irritability test ([4]; control beside sCBD-2): +
- grooming behaviour (rat VPA model [5]; day 1): significantly reduced
- frequency of centre zone crossings (rat VPA model [5]; day 1, vs VPA/Veh): significant decrease
- circling behaviour (rat VPA model [5]; day 2): significantly reversed
- grooming behaviour (rat VPA model [5]; day 2): significantly reduced
- number of centre zone crossings (rat VPA model [5]; day 2): significantly reduced
- time spent in the centre zone (rat VPA model [5]; day 2): significantly reduced
- increase in locomotor activity (distance travelled) (rat VPA model [5]; day one): significantly prevented
- time spent in the centre zone (rat VPA model [5]; day one): significantly reduced
- increase in locomotor activity (distance travelled) (rat VPA model [5]; day two): significantly prevented
- defensive behaviours, bottle brush (rat VPA model [6]; adult): no significant effect
- aggressive behaviour, bottle brush (rat VPA model [6]; adult, all days of assessment): significantly reduced
- irritability score, bottle brush (rat VPA model [6]; adult, all four assessment days): significantly reduced
- aggressive responses, bottle brush (rat VPA model [6]; [7]): significantly reduced
- irritability score (aggressive + defensive), bottle brush (rat VPA model [6]; [7]): no effect
